Numbers after ± are expanded uncertainties.
Settings: Liquid, Ebulliometric method (Recirculating still)

SMILES: CC(C)=O [acetone]
- vapor or sublimation pressure (329.35 K): 101 ± 1.3 kPa

SMILES: CO [methanol]
- vapor or sublimation pressure (337.75 K): 101 ± 1.3 kPa
